Test results from publication PMC9474705 (British journal of pharmacology, 2022).
pIC50: −log10 of the molar value.

Tests used:
[1] = target: β2AR (β2AR stable cells) (Homo sapiens, UniProt P07550); assay: [3H]DHA competition on membranes; assay type: binding
[2] = target: β2AR-RlucII (Homo sapiens, UniProt P07550); assay: BRET Gs; assay type: cell-based; conditions: agonist, […] min, mini-Gs
[3] = target: β1AR-RlucII (Homo sapiens, UniProt P08588); assay: BRET Gs; assay type: cell-based; conditions: agonist, […] min, mini-Gs
Sequence of β1AR-RlucII (P08588 whole entry): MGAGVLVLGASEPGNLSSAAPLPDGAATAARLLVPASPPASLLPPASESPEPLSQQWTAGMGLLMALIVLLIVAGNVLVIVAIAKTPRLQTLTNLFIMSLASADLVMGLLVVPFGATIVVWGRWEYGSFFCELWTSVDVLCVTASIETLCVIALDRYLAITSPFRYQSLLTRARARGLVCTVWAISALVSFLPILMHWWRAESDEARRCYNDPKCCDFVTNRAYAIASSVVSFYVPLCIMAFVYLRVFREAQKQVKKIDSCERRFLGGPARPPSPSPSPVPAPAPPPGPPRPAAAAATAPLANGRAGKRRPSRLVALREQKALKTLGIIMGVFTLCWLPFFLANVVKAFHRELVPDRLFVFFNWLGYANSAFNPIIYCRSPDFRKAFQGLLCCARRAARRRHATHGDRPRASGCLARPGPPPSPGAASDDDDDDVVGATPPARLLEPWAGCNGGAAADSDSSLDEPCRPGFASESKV

Sequence of β2AR (β2AR stable cells) (P07550 whole entry): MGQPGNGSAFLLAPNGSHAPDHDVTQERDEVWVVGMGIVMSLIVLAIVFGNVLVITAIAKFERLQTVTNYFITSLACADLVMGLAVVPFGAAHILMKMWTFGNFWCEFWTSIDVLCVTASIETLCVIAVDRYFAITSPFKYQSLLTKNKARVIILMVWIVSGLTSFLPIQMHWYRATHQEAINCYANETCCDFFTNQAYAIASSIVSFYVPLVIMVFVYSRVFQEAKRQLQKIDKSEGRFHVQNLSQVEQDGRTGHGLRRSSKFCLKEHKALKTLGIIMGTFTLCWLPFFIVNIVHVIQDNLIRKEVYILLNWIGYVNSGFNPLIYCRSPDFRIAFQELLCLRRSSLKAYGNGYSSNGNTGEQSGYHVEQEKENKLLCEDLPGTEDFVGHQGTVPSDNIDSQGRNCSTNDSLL
Sequence of β2AR-RlucII (P07550 whole entry): as above

In the case of `CCCCNCC(O)c1ccc(O)cc1` (stereo not shown) [Bamethane], the pIC50 [1] was 4.50 and the EC50 [2] was “all compounds showed efficacy in recruiting Gαs to the receptor”.
With `CC(CCc1ccccc1)NC(C)C(O)c1ccc(O)cc1` (stereo not shown) [Buphenine] the pIC50 [1] was 6.60.
In the case of `CC(CCc1ccc(O)cc1)NCCc1ccc(O)c(O)c1` (stereo not shown) [Dobutamine], the EC50 [3] was “DOB was slightly more efficacious for β1AR” and the pIC50 [1] was 5.30.
Work on `Oc1ccc(CC2NCCc3cc(O)c(O)cc32)cc1` (stereo not shown) [Higenamine] yielded a pIC50 [1] of 5.30.
`CC(NCCc1ccc(O)cc1)C(O)c1ccc(O)cc1` (stereo not shown) [Ritodrine] was tested, and the pIC50 [1] was 5.90.
